Tests used:
[1] = system: Adult male CD1 mice; assay: Spinal cord injury (SCI): light microscopy, histological score, Luxol fast blue; type: in vivo, mouse
Description: (§1) Mice were anaesthetized using chloral hydrate (400 mg/kg body weight) (Genovese 2006). A longitudinal incision was made on the midline of the back, exposing the paravertebral muscles. These muscles were dissected away exposing T5-T8 vertebrae. The spinal cord was exposed via a four-level T6-T7 laminectomy and SCI was produced by extradural compression using an aneurysm clip with a closing force of 24 g. Following surgery, 1 ml of saline was administered subcutaneously in order to replace the blood volume lost during surgery. During the surgery and recovery from anesthesia, the mice were placed on a warm heating pad and covered with a warm towel. The mice were singly housed in a temperature-controlled room at 27° C. and survival was measured over a period of 10 days. […]
The segments of each spinal cord were evaluated by an experienced histopathologist (RO). Damaged neurons were counted and the histopathologic changes of the gray matter were scored on a 6-point scale (Sirin 2000): 0, no lesion observed, 1, gray matter contained 1 to 5 eosinophilic neurons; 2, gray matter contained 5 to 10 eosinophilic neurons; 3, gray matter contained more than 10 eosinophilic neurons; 4, small infarction (less than one third of the gray matter area); 5, moderate infarction; (one third to one half of the gray matter area); 6, large infarction (more than half of the gray matter area). […]

[2] = system: Myeloperoxidase (MPO) activity; assay: SCI: myeloperoxidase activity (neutrophil infiltration); type: in vivo, mouse; settings: SCI mice, 24 hours; dosing as E50; ICI 182,780 = co-administration with 17β-estradiol
Description: Mice were anaesthetized using chloral hydrate (400 mg/kg body weight) (Genovese 2006). A longitudinal incision was made on the midline of the back, exposing the paravertebral muscles. These muscles were dissected away exposing T5-T8 vertebrae. The spinal cord was exposed via a four-level T6-T7 laminectomy and SCI was produced by extradural compression using an aneurysm clip with a closing force of 24 g. Following surgery, 1 ml of saline was administered subcutaneously in order to replace the blood volume lost during surgery. During the surgery and recovery from anesthesia, the mice were placed on a warm heating pad and covered with a warm towel. The mice were singly housed in a temperature-controlled room at 27° C. and survival was measured over a period of 10 days. Food and water were provided to the mice ad libitum. During this time period, the animals' bladders were manually voided twice a day until the mice were able to regain normal bladder function. In all injured groups, the spinal cord was compressed for 1 min. […] Myeloperoxidase (MPO) activity, an indicator of PMN accumulation, was determined as previously described (Mullane 1985) 24 h after SCI. […] The rate of change in absorbance was measured spectrophotometrically at 650 nm. MPO activity was defined as the quantity of enzyme degrading 1 μmol of peroxide per minute at 37° C. and was expressed in milliunits/g of wet tissue.

[3] = system: Bax and Bcl-2; assay: SCI: Western blot analysis for Bax and Bcl-2; type: in vivo, mouse; settings: spinal cord, 24 hours after SCI; ICI 182,780 = co-administration with 17β-estradiol
Description: as §1, with “days. Food and water were provided to the mice ad libitum.” for “days.”
For Western blot analysis, 70 μg protein of lysates were mixed with gel loading buffer (50 mM Tris, 10% (w/v), sodium dodecyl sulphate (SDS), 10% (w/v) glycerol, 10% (v/v) 2- mercaptoethanol, 2 mg/ml bromophenol), boiled for 5 min, and subjected to SDSPAGE (12% polyacrylamide). […] The protein bands of Bax (23˜kDa), or Bcl -2 (26˜kDa) on x-ray film were scanned and densitometrically analyzed with a model GS-700 imaging densitometer (Bio-Rad Laboratories). […]

[4] = system: TNF-α, IL-1β, IL-6, MCP-1; assay: SCI: quantitative real time PCR of cytokines and chemokines in spinal cord; settings: SCI mice, 24 h; dosing as E50; ICI 182,780 = co-administration with 17β-estradiol
Description: A longitudinal incision was made on the midline of the back, exposing the paravertebral muscles. These muscles were dissected away exposing T5-T8 vertebrae. […] Following surgery, 1 ml of saline was administered subcutaneously in order to replace the blood volume lost during surgery. During the surgery and recovery from anesthesia, the mice were placed on a warm heating pad and covered with a warm towel. The mice were singly housed in a temperature-controlled room at 27° C. and survival was measured over a period of 10 days. Food and water were provided to the mice ad libitum. During this time period, the animals' bladders were manually voided twice a day until the mice were able to regain normal bladder function. In all injured groups, the spinal cord was compressed for 1 min. Sham-injured animals were only subjected to laminectomy.
(§2) At different time points (see FIG. 30), the mice (n=10 from each group for each of the 3 time points) were sacrificed in order to evaluate the various parameters as described below.
Total cellular RNA was isolated from the aqueous phase then the levels of IL-α, TNF-α, MCP-1, IL-6 gene products were determined by Real Time PCR. The amount of each PCR product of gene target was normalized to Glyceraldehyde-3-phosphate dehydrogenase (GAPDH). The RNA extracted from spinal cord of individual mice was reverse trascripted into first strand cDNA with Random Hexamers and purified Avian Myeloblastosis Virus Reverse Transcriptase (Takara, Japan) in 20 ml of reaction after a DNAse treatment and stored at −80° C. until use. Primers pair for each cytokine was designed using the software Oligo (Molecular Biology Insights, Cascade, Colo., USA). The PCR reactions were performed using the following cycle conditions: a denaturation step for 15 minutes at 95° C. and 40 cycles of 30 seconds denaturation at 94° C., 30 seconds annealing (TNF-á 61° C., IL-6 54° C., IL-1β 61° C., MCP-1 54° C., GADPH 56° C.), 15 sec at 72° C. and 7 minutes of final extension at 72° C. The PCR products were visualized by electrophoresis on agarose gel 2% stained by ethidium bromide. The purified PCR products were cloned into a plasmid vector, transformed into the E. coli TOP 10 (Invitrogen) and purified with Turbo Kit (QBIOgene, Calif., USA). The recombinant plasmid was linearized upstream the target sequence using the restriction endonuclease PmeI (Fermentas, Canada). Tenfold dilutions of recombinant plasmid from 10^9 copies down to 10^1 copies were used as standards. The real time PCR assay was developed and evaluated on the Rotor-Gene 3000 system (Corbett Research, Australia). […] The signal was acquired on the FAM channel (multichannel machine) (source, 470 nm; detector, 510 nm; gain set to 5) with the fluorescence reading taken at the end of each 72° C. step. […]

[5] = system: Nitrotyrosine, iNOS, MPO, COX-2, Bax and Bcl-2; assay: SCI: immunohistochemical localization of nitrotyrosine, iNOS, MPO, COX-2, Bax and Bcl-2; settings: ICI 182,780 = co-administration with 17β-estradiol
Description: A longitudinal incision was made on the midline of the back, exposing the paravertebral muscles. These muscles were dissected away exposing T5-T8 vertebrae. […] Following surgery, 1 ml of saline was administered subcutaneously in order to replace the blood volume lost during surgery. During the surgery and recovery from anesthesia, the mice were placed on a warm heating pad and covered with a warm towel. […] Food and water were provided to the mice ad libitum. During this time period, the animals' bladders were manually voided twice a day until the mice were able to regain normal bladder function. In all injured groups, the spinal cord was compressed for 1 min. Sham-injured animals were only subjected to laminectomy.
as §2
At 24 h after SCI, the tissues were fixed in 10% (w/v) PBS-buffered formaldehyde and 8-μm sections were prepared from paraffin embedded tissues. After deparaffinization, endogenous peroxidase was quenched with 0.3% (v/v) hydrogen peroxide in 60% (v/v) methanol for 30 min. The sections were permeabilized with 0.1% (w/v) Triton X-100 in PBS for 20 min. Non-specific adsorption was minimized by incubating the section in 2% (v/v) normal goat serum in PBS for 20 min. Endogenous biotin or avidin binding sites were blocked by sequential incubation for 15 min with biotin and avidin (DBA), respectively. Sections were incubated overnight with antinitrotyrosine rabbit polyclonal antibody (Upstate; 1:500 in PBS, v/v), with anti-iNOS polyclonal antibody rat (1:500 in PBS, v/v), anti-COX-2 monoclonal antibody (1:500 in PBS, v/v), anti-Bax rabbit polyclonal antibody (Santa Cruz Biotechnology, Inc., Santa Cruz, Calif.; 1:500 in PBS, v/v), or with anti-Bcl-2 polyclonal antibody rat (Santa Cruz Biotechnology, Inc., Santa Cruz, Calif.; 1:500 in PBS, v/v), or with anti-MPO polyclonal antibody (Santa Cruz Biotechnology, Inc., Santa Cruz, Calif.; 1:500 in PBS, v/v). Sections were washed with PBS, and incubated with secondary antibody. Specific labeling was detected with a biotin-conjugated goat anti-rabbit IgG and avidin-biotin peroxidase complex (DBA) and counterstained whith nuclear fast red. To verify the binding specificity for nitrotyrosine, iNOS, COX-2, Bax, and Bcl-2, some sections were also incubated with only the primary antibody (no secondary) or with only the secondary antibody (no primary).

[6] = SCI mice, 24 hours, dosing as E50
[7] = spinal cord, 24 hours after SCI

SMILES: C[C@]12CC[C@@H]3c4ccc(O)cc4C[C@@H](CCCCCCCCC[S+]([O-])CCCC(F)(F)C(F)(F)F)[C@H]3[C@@H]1CC[C@@H]2O (stereo partly drawn) [ICI 182,780]
- histological alteration of spinal cord (H&E, histological score) ([1]; 24 hours after injury, 17β-estradiol 300 μg/kg s.c. 1 h before, 3 h and 6 h after SCI, ICI 182,780 rows: 500 μg/kg s.c. 1 hour before 17β-estradiol (co-administration)): significantly blocked the effect of the 17β-estradiol on the histological alteration
- myelin structure (Luxol fast blue staining) ([1]; 24 hours, dosing as E50, ICI 182,780 = co-administration with 17β-estradiol): significantly blocked the effect of the 17β-estradiol
- MPO activity in the spinal cord (neutrophil infiltration) [2]: significantly blocked the effect of the 17β-estradiol on the neutrophils infiltration
- Bax expression (Western blot) [3]: significantly blocked the effect of the 17β-estradiol on Bax expression
- Bcl-2 expression (Western blot) [3]: significantly blocked the effect of the 17β-estradiol on the Bcl2 expression
- tissue levels of IL-1β (mRNA) [4]: significantly blocked the effect of the 17β-estradiol
- tissue levels of IL-6 (mRNA) [4]: significantly blocked the effect of the 17β-estradiol
- tissue levels of MCP-1 (mRNA) [4]: significantly blocked the effect of the 17β-estradiol
- tissue levels of TNF-α (mRNA) [4]: significantly blocked the effect of the 17β-estradiol
- immunohistological staining for COX-2 [5, 6]: significantly blocked the effect of the 17β-estradiol on COX-2 expression
- immunohistological staining for iNOS [5, 6]: significantly blocked the effect of the 17β-estradiol on iNOS expression
- immunohistological staining for nitrotyrosine [5, 6]: significantly blocked the effect of the 17β-estradiol
- staining for MPO [5, 6]: significantly blocked the effect of the 17β-estradiol on the MPO
- immunohistological staining for Bax [5, 7]: significantly blocked the effect of the 17β-estradiol
- immunohistological staining for Bcl-2 [5, 7]: significantly blocked the effect of the 17β-estradiol

Reference: patent US9301970B2, “Methods and compositions for treating trauma-hemorrhage using estrogen and derivatives thereof” (The UAB Research Foundation, priority 2006, dated 2016)
